From patent US10028992B2, “Methods of treating muscular dystrophy” (BOARD OF REGENTS OF THE NEVADA SYSTEM OF HIGHER EDUCATION …, priority 2012, dated 2018)
Where two headings read alike, the source gives them in different places. Blank lines part the entries; values can stand above or below the molecule they belong to.

Test system: α7 integrin promoter
Test: muscle cell-based assay: α7βgal+/− myoblasts/myotubes, LacZ reporter, β-galactosidase cleavage of FDG
Set-up: species or system mouse; Results in α7+/− β-galactosidase assay: scale not given here
Settings: for EC50: given as log AC50 (negative values), read-out: Fit LogAC50 (converted); for Results in a α7+/− β-galactosidase assay, Myotubes, 0.5 uM: compound at 0.5 uM; for Results in a α7+/− β-galactosidase assay, Myotubes, 1 uM: compound at 1 uM; for Results in a α7+/− β-galactosidase assay, Myotubes, 5 uM: compound at 5 uM; for Results in a α7+/− β-galactosidase assay, Myotubes, 10 uM: compound at 10 uM; for Results in a α7+/− β-galactosidase assay, Myotubes, 20 uM: compound at 20 uM; for Results in a α7+/− β-galactosidase assay, Myotubes, 40 uM: compound at 40 uM; for AC50: read-out: Fit Log AC50 (converted)
Method in brief: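 Fluorescein generated from FDG by β-galactosidase reports α7 integrin promoter activity in differentiated myoblasts from α7+/− LacZ knock-in pups. Screening hits then went to dose-response, western blotting and a myostatin counterscreen.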

[1] = curve class number, key not given
[2] = curve fit, activity at zero concentration
[3] = Mus musculus, Table 12, log of AC50, given with negative sign, unit of AC50 not given
[4] = Table 12, fitted activity at zero concentration
[5] = Table 12 Compound data, concentration-response curve fit

Structure (SMILES): COC(=O)c1ccccc1CC(=O)CSc1nc(O)c(-c2ccccc2)c(O)n1 [drawing 666]
Results in α7+/− β-galactosidase assay (Myoblasts, 0.5 uM): 0.06548
Results in α7+/− β-galactosidase assay (Myoblasts, 1 uM): 0.01829
Results in α7+/− β-galactosidase assay (Myoblasts, 5 uM): 0.06613
Results in α7+/− β-galactosidase assay (Myoblasts, 10 uM): 0.1141
Results in α7+/− β-galactosidase assay (Myoblasts, 20 uM): 0.0713
Results in α7+/− β-galactosidase assay (Myoblasts, 40 uM): 0.08837

EC50 (Mus musculus): 10 µM
Structure (SMILES): CCc1c(C2(O)CCCCC2)[nH]c2ncccc12 [Compound 135]
Score (Table 12 compound data): 42
Fit Curve Class [1]: 2.1
Fit HillSlope (curve fit): 4.9549
Fit Zero Activity [%] [2]: −29.3022%

EC50 (Mus musculus): 3.98 µM
Structure (SMILES): O=S(=O)(c1ccccc1)N1CCCC(c2nc(O)c3nnn(Cc4cccc(Cl)c4)c3n2)C1 (stereo not shown) [Compound 161]
Score (Table 12 compound data): 42
Fit Curve Class [1]: 2.1
Fit HillSlope (curve fit): 1.1
Fit Zero Activity [%] [2]: −42.9418%

EC50 (Mus musculus): 5.62 µM
Structure (SMILES): COc1ccc(O)c(/C=N/NC(=O)c2cc(O)nc3ccccc23)c1 [Compound 179]
Score (Table 12 compound data): 42
Fit Curve Class [1]: 2.1
Fit HillSlope (curve fit): 2.2526
Fit Zero Activity [%] [2]: −35.6913%

Structure (SMILES): CCC(C)C(CC)NC(=O)CSc1nnc(COc2ccc(Cl)cc2)o1 (stereo not shown) [drawing 582]
Results in α7+/− β-galactosidase assay (Myoblasts, 0.5 uM): 0.3279
Results in α7+/− β-galactosidase assay (Myoblasts, 1 uM): 0.05348
Results in α7+/− β-galactosidase assay (Myoblasts, 5 uM): 0.1357
Results in α7+/− β-galactosidase assay (Myoblasts, 10 uM): −0.1014
Results in α7+/− β-galactosidase assay (Myoblasts, 20 uM): −0.1787
Results in α7+/− β-galactosidase assay (Myoblasts, 40 uM): −0.4133

Structure (SMILES): O=C(N/N=C/c1c[nH]c2ccccc12)c1cc(Cl)ccc1O [drawing 409]
Results in a α7+/− β-galactosidase assay, Myotubes, 0.5 uM (Myotubes): −0.05672
Results in a α7+/− β-galactosidase assay, Myotubes, 1 uM (Myotubes): −0.09286
Results in a α7+/− β-galactosidase assay, Myotubes, 5 uM (Myotubes): 0.2441
Results in a α7+/− β-galactosidase assay, Myotubes, 10 uM (Myotubes): −0.1364
Results in a α7+/− β-galactosidase assay, Myotubes, 20 uM (Myotubes): 0.01214
Results in a α7+/− β-galactosidase assay, Myotubes, 40 uM (Myotubes): −0.2587

Structure (SMILES): O=C1c2ccccc2C(=O)C1(CC(O)O)c1ccccc1 [drawing 474]
Results in a α7+/− β-galactosidase assay, Myotubes, 0.5 uM (Myotubes): −0.08689
Results in a α7+/− β-galactosidase assay, Myotubes, 1 uM (Myotubes): 0.05823
Results in a α7+/− β-galactosidase assay, Myotubes, 5 uM (Myotubes): −0.2367
Results in a α7+/− β-galactosidase assay, Myotubes, 10 uM (Myotubes): −0.3763
Results in a α7+/− β-galactosidase assay, Myotubes, 20 uM (Myotubes): −0.3304
Results in a α7+/− β-galactosidase assay, Myotubes, 40 uM (Myotubes): −0.4389

Structure (SMILES): CCS(=O)(=O)N1CCCC(C(=O)c2ccc(OC)cc2C)C1 (stereo not shown) [Compound 83]
AC50 [3]: 11.2 µM
Fit HillSlope (Table 12, curve fit): 2.0937
Fit Zero Activity [%] [4]: −12.9886%
Fit Curve Class (Table 12, key not given): 2.1
Score [5]: 44

Structure (SMILES): O=C1Nc2ccccc2/C1=C/c1ccccc1Cl [drawing 321]
Results in a α7+/− β-galactosidase assay, Myotubes, 0.5 uM (Myotubes): 0.1248
Results in a α7+/− β-galactosidase assay, Myotubes, 1 uM (Myotubes): 0.1803
Results in a α7+/− β-galactosidase assay, Myotubes, 5 uM (Myotubes): −0.0494
Results in a α7+/− β-galactosidase assay, Myotubes, 10 uM (Myotubes): −0.1957
Results in a α7+/− β-galactosidase assay, Myotubes, 20 uM (Myotubes): −0.4748
Results in a α7+/− β-galactosidase assay, Myotubes, 40 uM (Myotubes): −0.6409

Structure (SMILES): CC(NC(=O)c1ccc(C(C)(C)C)cc1)C(c1cccs1)N1CCOCC1 (stereo not shown) [drawing 402]
Results in a α7+/− β-galactosidase assay, Myotubes, 0.5 uM (Myotubes): 0.08612
Results in a α7+/− β-galactosidase assay, Myotubes, 1 uM (Myotubes): 0.07635
Results in a α7+/− β-galactosidase assay, Myotubes, 5 uM (Myotubes): 0.06551
Results in a α7+/− β-galactosidase assay, Myotubes, 10 uM (Myotubes): 0.1287
Results in a α7+/− β-galactosidase assay, Myotubes, 20 uM (Myotubes): −0.144
Results in a α7+/− β-galactosidase assay, Myotubes, 40 uM (Myotubes): −0.1386

Structure (SMILES): CNc1nnc(SCC(=O)c2cc(C)n(C3CC3)c2C)s1 [Compound 68]
AC50 [3]: 12.6 µM
Fit HillSlope (Table 12, curve fit): 4.5045
Fit Zero Activity [%] [4]: −17.9914%
Fit Curve Class (Table 12, key not given): 2.1
Score [5]: 44

Structure (SMILES): CCOC(=O)c1cc(C(=O)OCC)c(SCc2ccccc2)nc1O [drawing 416]
Results in a α7+/− β-galactosidase assay, Myotubes, 0.5 uM (Myotubes): −0.05564
Results in a α7+/− β-galactosidase assay, Myotubes, 1 uM (Myotubes): −0.06589
Results in a α7+/− β-galactosidase assay, Myotubes, 5 uM (Myotubes): 0.2144
Results in a α7+/− β-galactosidase assay, Myotubes, 10 uM (Myotubes): −0.09676
Results in a α7+/− β-galactosidase assay, Myotubes, 20 uM (Myotubes): −0.147
Results in a α7+/− β-galactosidase assay, Myotubes, 40 uM (Myotubes): −0.37

EC50 (Mus musculus): 12.6 µM
Structure (SMILES): Cl.O=C(CN1CCOCC1)NCc1cc([N+](=O)[O-])ccc1O [Compound 166]
Score (Table 12 compound data): 42
Fit Curve Class [1]: 2.1
Fit HillSlope (curve fit): 1.3987
Fit Zero Activity [%] [2]: 10.3691%

Structure (SMILES): Cn1ccc(C(=O)Nc2cccnc2Cl)n1 [drawing 710]
Result in α7+/− β-galactosidase assay (Myoblasts, 0.5 uM): 0.1419
Result in α7+/− β-galactosidase assay (Myoblasts, 1 uM): 0.09145
Result in α7+/− β-galactosidase assay (Myoblasts, 5 uM): 0.0569
Result in α7+/− β-galactosidase assay (Myoblasts, 10 uM): 0.1922
Result in α7+/− β-galactosidase assay (Myoblasts, 20 uM): −0.0349
Result in α7+/− β-galactosidase assay (Myoblasts, 40 uM): −0.1785

Structure (SMILES): Cc1ccc(C(=O)N2CCN(S(=O)(=O)N3CCOCC3)CC2)cc1 [drawing 434]
Results in a α7+/− β-galactosidase assay, Myotubes, 0.5 uM (Myotubes): −0.01141
Results in a α7+/− β-galactosidase assay, Myotubes, 1 uM (Myotubes): −0.169
Results in a α7+/− β-galactosidase assay, Myotubes, 5 uM (Myotubes): 0.007084
Results in a α7+/− β-galactosidase assay, Myotubes, 10 uM (Myotubes): 0.1108
Results in a α7+/− β-galactosidase assay, Myotubes, 20 uM (Myotubes): −0.2209
Results in a α7+/− β-galactosidase assay, Myotubes, 40 uM (Myotubes): 0.1179

Structure (SMILES): CCOC(=O)C1(Cc2cccc(Cl)c2)CCCN(C(=O)CCSC)C1 (stereo not shown) [drawing 604]
Results in α7+/− β-galactosidase assay (Myoblasts, 0.5 uM): 0.08932
Results in α7+/− β-galactosidase assay (Myoblasts, 1 uM): −0.00471
Results in α7+/− β-galactosidase assay (Myoblasts, 5 uM): −0.04484
Results in α7+/− β-galactosidase assay (Myoblasts, 10 uM): −0.02503
Results in α7+/− β-galactosidase assay (Myoblasts, 20 uM): −0.06029
Results in α7+/− β-galactosidase assay (Myoblasts, 40 uM): −0.2262

Structure (SMILES): CCc1nc2ccccc2c(C(=O)NCc2ccccc2)c1C [drawing 669]
Results in α7+/− β-galactosidase assay (Myoblasts, 0.5 uM): 0.09233
Results in α7+/− β-galactosidase assay (Myoblasts, 1 uM): 0.1045
Results in α7+/− β-galactosidase assay (Myoblasts, 5 uM): 0.3581
Results in α7+/− β-galactosidase assay (Myoblasts, 10 uM): −0.08672
Results in α7+/− β-galactosidase assay (Myoblasts, 20 uM): 0.0466
Results in α7+/− β-galactosidase assay (Myoblasts, 40 uM): 0.1074

Structure (SMILES): CCCC1C(c2cc(OC)c(OC)c(OC)c2)=Nc2c1c(=O)[nH]c(=O)n2Cc1ccccc1 (stereo not shown) [drawing 469]
Results in a α7+/− β-galactosidase assay, Myotubes, 0.5 uM (Myotubes): −0.09222
Results in a α7+/− β-galactosidase assay, Myotubes, 1 uM (Myotubes): −0.1313
Results in a α7+/− β-galactosidase assay, Myotubes, 5 uM (Myotubes): −0.484
Results in a α7+/− β-galactosidase assay, Myotubes, 10 uM (Myotubes): −0.34
Results in a α7+/− β-galactosidase assay, Myotubes, 20 uM (Myotubes): −0.2089
Results in a α7+/− β-galactosidase assay, Myotubes, 40 uM (Myotubes): −0.2856

Structure (SMILES): Cc1nn(C(C)(C)C)c(C)c1/C=N/OC(=O)Nc1ccc(Cl)c(Cl)c1 [Compound 32]
Curve Description: Complete
Fit Curve Class: 1.1
Fit HillSlope: 2.1211
Fit Zero Activity [%]: −28.5623%
Score: 83
AC50 (Mus musculus): 2.82 µM
Emax (Mus musculus, read-out: Max Response [%]): 59.8%

Structure (SMILES): CCNC(=O)C(=O)Nc1cc2c3c(c1)CCN3C(=O)CC2 [drawing 482]
Results in a α7+/− β-galactosidase assay, Myotubes, 0.5 uM (Myotubes): 0.05071
Results in a α7+/− β-galactosidase assay, Myotubes, 1 uM (Myotubes): −0.07574
Results in a α7+/− β-galactosidase assay, Myotubes, 5 uM (Myotubes): 0.4036
Results in a α7+/− β-galactosidase assay, Myotubes, 10 uM (Myotubes): −0.03505
Results in a α7+/− β-galactosidase assay, Myotubes, 20 uM (Myotubes): −0.1926
Results in a α7+/− β-galactosidase assay, Myotubes, 40 uM (Myotubes): −0.2686

Structure (SMILES): O=C(NCc1ccccc1)c1csc(-c2cccnc2)n1 [drawing 660]
Results in α7+/− β-galactosidase assay (Myoblasts, 0.5 uM): −0.1908
Results in α7+/− β-galactosidase assay (Myoblasts, 1 uM): −0.04939
Results in α7+/− β-galactosidase assay (Myoblasts, 5 uM): 0.2247
Results in α7+/− β-galactosidase assay (Myoblasts, 10 uM): 0.1255
Results in α7+/− β-galactosidase assay (Myoblasts, 20 uM): 0.2423
Results in α7+/− β-galactosidase assay (Myoblasts, 40 uM): 0.1166

Structure (SMILES): O=C1Nc2ccccc2/C1=C1/Nc2ccccc2/C1=N\O [drawing 514]
Results in α7+/− β-galactosidase assay (Myotubes, 0.5 uM): −0.111
Results in α7+/− β-galactosidase assay (Myotubes, 1 uM): −0.1122
Results in α7+/− β-galactosidase assay (Myotubes, 5 uM): −0.8688
Results in α7+/− β-galactosidase assay (Myotubes, 10 uM): −1.081
Results in α7+/− β-galactosidase assay (Myotubes, 20 uM): −0.5041
Results in α7+/− β-galactosidase assay (Myotubes, 40 uM): −0.6481
